Data as given in patent publication US12091402B2 (Avilar Therapeutics, Inc., priority 2021, dated 2024).
Where two headings read alike, the source gives them in different places. Where a SMILES comes first, the peptide text is derived from it. Bridges are numbered along the chain shown (N, C = ends). [ ]: non-standard residue; d: D form. Pro(4S-NH2) = N[C@@H]1CN[C@H](C(=O)O)C1

Tests used:
[1] = tested on: HepG2 cells; test: Cellular uptake assay of AF488-labeled antibody (HepG2); type: cell-based; conditions: HepG2 cells, 100 nM AF488-labeled antibody, 37° C. for 6 hours; class symbols; read-out: Uptake Assay EC50
Protocol: The cellular uptake assay is designed to measure compound-mediated cellular uptake of fluorescently labeled antibody following ternary complex formation with the ASGPR receptor and endocytosis of the entire complex into cells.
Human IgG (Sigma-Aldrich, 14506) was covalently labeled with Alexa Fluor 488 using the Alexa Fluor™ 488 Protein Labeling Kit (Thermo Fisher, A10235) following the manufacturer's instructions. HepG2 cells were plated in DMEM supplemented with 10% FBS at 5,000 cells per well in a 96-well microtiter plate and incubated for approximately 18 hours at 37° C./5% CO2. For studies using human IgG, 100 nM AF488-labeled human IgG antibodies and serial dilutions of IgG-based degrader (0.1% DMSO final concentration) were added to the cells and the mixture was incubated at 37° C. for 6 hours. For studies using DNP, 100 nM AF488-labeled DNP antibodies and serial dilutions of DNP-based degrader (0.1% DMSO final concentration) were added to the cells and the mixture was incubated at 37° C. for 6 hours. HepG2 cells were fixed in 100% methanol at −20° C. for 20 min, washed 3× with PBS, then stained with DAPI (Thermo, Cat #H3570). HepG2 cells were imaged for DAPI and Alexa Fluor 488 using the Operetta CLS, high-content analysis system (PerkinElmer). Data is presented as the ratio of the number of cells positive for hIgG or DNP (AF-488 fluorescence) over the total cell number (measured by DAPI).

[2] = biological target: IgG; test: Affinity to IgG by surface plasmon resonance (SPR); type: binding
Protocol: Immobilization levels ranging from 1000-1300 resonance units (RU) are obtained. The running buffer is 10 mM HEPES, pH 7.4, 400 mM NaCl, 0.005% P20, […].

[3] = biological target: T1, ASGPR (Homo sapiens, UniProt P07306); test: Affinity to ASGPR by surface plasmon resonance (SPR)
T1 sequence (P07306 1-291): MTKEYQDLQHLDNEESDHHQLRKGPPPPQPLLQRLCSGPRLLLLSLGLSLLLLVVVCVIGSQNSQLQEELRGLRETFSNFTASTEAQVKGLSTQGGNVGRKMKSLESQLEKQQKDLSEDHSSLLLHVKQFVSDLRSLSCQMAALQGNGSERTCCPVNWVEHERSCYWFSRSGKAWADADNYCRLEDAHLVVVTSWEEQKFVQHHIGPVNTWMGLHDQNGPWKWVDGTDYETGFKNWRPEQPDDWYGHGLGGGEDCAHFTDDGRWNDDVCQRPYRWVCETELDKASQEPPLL

[4] = Biacore 8K, 25° C., IgG on CM5 chip, read-out: IgG SPR Binding Kd

Kd [2, 4] | Kd ([2]; SPR, read-out: IgG KD) | Kd [3] | Structure (SMILES) | EC50 [1]
< 0.1 µM | < 0.1 µM |  | CC(C)C[C@@H]1NC(=O)[C@H](Cc2cnc[nH]2)NC(=O)[C@H](Cc2c[nH]c3ccccc23)NC(=O)[C@H](C)NC(=O)[C@@H]2CSSC[C@H](NC(=O)[C@H](Cc3c[nH]c4ccccc34)NC(=O)[C@H](C(C)C)NC(=O)[C@H](CC(C)C)NC(=O)[C@H](CCC(=O)N(C)C)NC(=O)CNC1=O)C(=O)N[C@@H]([C@@H](C)O)C(=O)N1CCC[C@@H]1C(=O)N1C[C@@H](N)C[C@H]1C(=O)N[C@@H](CC(=O)O)C(=O)N2 [Intermediate 23] | 
< 0.1 µM |  |  | CC(C)C[C@@H]1NC(=O)[C@H](Cc2cnc[nH]2)NC(=O)[C@H](Cc2c[nH]c3ccccc23)NC(=O)[C@H](C)NC(=O)[C@@H]2CSSC[C@H](NC(=O)[C@H](Cc3c[nH]c4ccccc34)NC(=O)[C@H](C(C)C)NC(=O)[C@H](CC(C)C)NC(=O)[C@H](CCC(=O)O)NC(=O)CNC1=O)C(=O)N[C@@H]([C@@H](C)O)C(=O)N1CCC[C@@H]1C(=O)N1C[C@@H](N)C[C@H]1C(=O)N[C@@H](CC(=O)O)C(=O)N2 [Intermediate 5] | 
< 0.1 µM | < 0.1 µM |  | CNC(=O)CC[C@@H]1NC(=O)CNC(=O)[C@H](CC(C)C)NC(=O)[C@H](Cc2cnc[nH]2)NC(=O)[C@H](Cc2c[nH]c3ccccc23)NC(=O)[C@H](C)NC(=O)[C@@H]2CSSC[C@H](NC(=O)[C@H](Cc3c[nH]c4ccccc34)NC(=O)[C@H](C(C)C)NC(=O)[C@H](CC(C)C)NC1=O)C(=O)N[C@@H]([C@@H](C)O)C(=O)N1CCC[C@@H]1C(=O)N1C[C@@H](N)C[C@H]1C(=O)N[C@@H](CC(=O)O)C(=O)N2 [Intermediate 22] | 
< 0.1 µM | < 0.1 µM |  | CC(C)C[C@@H]1NC(=O)[C@H](Cc2cnc[nH]2)NC(=O)[C@H](Cc2c[nH]c3ccccc23)NC(=O)[C@H](C)NC(=O)[C@@H]2CSSC[C@H](NC(=O)[C@H](Cc3c[nH]c4cc(Cl)ccc34)NC(=O)[C@H](C(C)C)NC(=O)[C@H](CC(C)C)NC(=O)[C@H](CCC(=O)O)NC(=O)CNC1=O)C(=O)N[C@@H]([C@@H](C)O)C(=O)N1CCC[C@@H]1C(=O)N1C[C@@H](N)C[C@H]1C(=O)N[C@@H](CC(=O)O)C(=O)N2 [Intermediate 19] | 
< 0.1 µM |  |  | C#CCCCC(=O)NCCOCCC(=O)N[C@H]1C[C@H]2C(=O)N[C@@H](CC(=O)O)C(=O)N[C@H]3CSSC[C@H](NC(=O)[C@H](Cc4c[nH]c5ccccc45)NC(=O)[C@H](C(C)C)NC(=O)[C@H](CC(C)C)NC(=O)[C@H](CCC(=O)O)NC(=O)CNC(=O)[C@H](CC(C)C)NC(=O)[C@H](Cc4cnc[nH]4)NC(=O)[C@H](Cc4c[nH]c5ccccc45)NC(=O)[C@H](C)NC3=O)C(=O)N[C@@H]([C@@H](C)O)C(=O)N3CCC[C@@H]3C(=O)N2C1 [Intermediate 7] | 
< 0.1 µM | < 0.1 µM |  | CC(C)C[C@@H]1NC(=O)[C@H](Cc2cnc[nH]2)NC(=O)[C@H](Cc2c[nH]c3ccccc23)NC(=O)[C@H](C)NC(=O)[C@@H]2CSSC[C@H](NC(=O)[C@H](Cc3c[nH]c4ccc(Cl)cc34)NC(=O)[C@H](C(C)C)NC(=O)[C@H](CC(C)C)NC(=O)[C@H](CCC(=O)O)NC(=O)CNC1=O)C(=O)N[C@@H]([C@@H](C)O)C(=O)N1CCC[C@@H]1C(=O)N1C[C@@H](N)C[C@H]1C(=O)N[C@@H](CC(=O)O)C(=O)N2 [Intermediate 29] | 
< 0.1 µM | < 0.1 µM |  | CC(C)C[C@@H]1NC(=O)[C@H](Cc2cnc[nH]2)NC(=O)[C@H](Cc2c[nH]c3ccccc23)NC(=O)[C@H](C)NC(=O)[C@@H]2CSSC[C@H](NC(=O)[C@H](Cc3c[nH]c4ccccc34)NC(=O)[C@H](C(C)C)NC(=O)[C@H](CC(C)C)NC(=O)[C@H](CCC(=O)N(C)C)NC(=O)CNC1=O)C(=O)N[C@@H]([C@@H](C)O)C(=O)N1CCC[C@@H]1C(=O)N1C[C@@H](N)C[C@H]1C(=O)N[C@@H](CC(N)=O)C(=O)N2 [Intermediate 27] (cyclo(AWHLGE(NMe2)LVWCT[dP][Pro(4S-NH2)]NC); disulfide 10-15) | 

Continued, compound first:

Structure (SMILES) | Kd [2, 4] | Kd ([2]; SPR, read-out: IgG KD) | Kd [3] | EC50 [1]
CC(C)C[C@@H]1NC(=O)[C@H](Cc2c[nH]cn2)NC(=O)[C@H](Cc2c[nH]c3ccccc23)NC(=O)[C@H](C)NC(=O)[C@@H]2CSSC[C@H](NC(=O)[C@H](Cc3c[nH]c4ccccc34)NC(=O)[C@H](C(C)C)NC(=O)[C@H](CC(C)C)NC(=O)[C@H](CCC(=O)O)NC(=O)CNC1=O)C(=O)N[C@@H]([C@@H](C)O)C(=O)N1CCC[C@@H]1C(=O)N1C[C@@H](NC(=O)CCOCCOCCOCCOCCNC(=O)CCCc3cn(CCCCCC(=O)NC(COCCC(=O)NCCOCCOCCOCCOC[C@@]45CO[C@@H](O4)[C@H](Nc4nc(Cl)ns4)[C@@H](O)[C@H]5O)COCCC(=O)NCCOCCOCCOCCOC[C@@]45CO[C@@H](O4)[C@H](Nc4nc(Cl)ns4)[C@@H](O)[C@H]5O)nn3)C[C@H]1C(=O)N[C@@H](CC(=O)O)C(=O)N2 [Compound 14] |  |  |  | < 0.1 µM
CC(C)C[C@@H]1NC(=O)[C@H](Cc2c[nH]cn2)NC(=O)[C@H](Cc2c[nH]c3ccccc23)NC(=O)[C@H](C)NC(=O)[C@@H]2CSSC[C@H](NC(=O)[C@H](Cc3c[nH]c4ccccc34)NC(=O)[C@H](C(C)C)NC(=O)[C@H](CC(C)C)NC(=O)[C@H](CCC(=O)O)NC(=O)CNC1=O)C(=O)N[C@@H]([C@@H](C)O)C(=O)N1CCC[C@@H]1C(=O)N1C[C@@H](NC(=O)CCOCCOCCNC(=O)CCCc3cn(C[C@@]45CO[C@@H](O4)[C@H](Nc4nc(Cl)ns4)[C@@H](O)[C@H]5O)nn3)C[C@H]1C(=O)N[C@@H](CC(=O)O)C(=O)N2 [Compound 13] |  |  |  | 0.1 to 0.5 µM
CC(C)C[C@@H]1NC(=O)[C@H](Cc2cnc[nH]2)NC(=O)[C@H](Cc2c[nH]c3ccccc23)NC(=O)[C@H](C)NC(=O)[C@@H]2CC/C=C/C[C@H](NC(=O)[C@H](Cc3c[nH]c4ccccc34)NC(=O)[C@H](C(C)C)NC(=O)[C@H](CC(C)C)NC(=O)[C@H](CCC(=O)O)NC(=O)CNC1=O)C(=O)N[C@@H]([C@@H](C)O)C(=O)N1CCC[C@@H]1C(=O)N1CCC[C@H]1C(=O)N[C@@H](CC(=O)O)C(=O)N2 |  | < 0.1 µM |  | 
CC(C)C[C@@H]1NC(=O)[C@H](Cc2cnc[nH]2)NC(=O)[C@H](Cc2c[nH]c3ccccc23)NC(=O)[C@H](C)NC(=O)[C@@H]2CSSC[C@H](NC(=O)[C@H](Cc3c[nH]c4ccccc34)NC(=O)[C@H](C(C)C)NC(=O)[C@H](CC(C)C)NC(=O)[C@H](CCC(=O)O)NC(=O)CNC1=O)C(=O)N[C@@H]([C@@H](C)O)C(=O)N1CCC[C@@H]1C(=O)N1C[C@@H](NC(=O)CCCc3cn(C[C@H]4OC[C@H](Nc5nccc(C(F)(F)F)n5)[C@@H](O)[C@H]4O)nn3)C[C@H]1C(=O)N[C@@H](CC(=O)O)C(=O)N2 [Compound 80] |  | < 0.1 µM | > 1 µM | 
CC(C)C[C@@H]1NC(=O)[C@H](Cc2cnc[nH]2)NC(=O)[C@H](Cc2c[nH]c3ccccc23)NC(=O)[C@H](C)NC(=O)[C@@H]2CSSC[C@H](NC(=O)[C@H](Cc3c[nH]c4ccccc34)NC(=O)[C@H](C(C)C)NC(=O)[C@H](CC(C)C)NC(=O)[C@H](CCC(=O)O)NC(=O)CNC1=O)C(=O)N[C@@H]([C@@H](C)O)C(=O)N1CCC[C@@H]1C(=O)N1C[C@@H](N)C[C@H]1C(=O)N[C@@H](CC(N)=O)C(=O)N2 [Intermediate 13] (cyclo(AWHLGELVWCT[dP][Pro(4S-NH2)]NC); disulfide 10-15) | < 0.1 µM | < 0.1 µM |  | 
CC(C)C[C@@H]1NC(=O)[C@H](Cc2c[nH]cn2)NC(=O)[C@H](Cc2c[nH]c3ccccc23)NC(=O)[C@H](C)NC(=O)[C@@H]2CSSC[C@H](NC(=O)[C@H](Cc3c[nH]c4ccccc34)NC(=O)[C@H](C(C)C)NC(=O)[C@H](CC(C)C)NC(=O)[C@H](CCC(=O)O)NC(=O)CNC1=O)C(=O)N[C@@H]([C@@H](C)O)C(=O)N1CCC[C@@H]1C(=O)N1C[C@@H](NC(=O)CCOCCOCCNC(=O)CCCc3cn(CCCCCC(=O)NC(COCCC(=O)NCCOCCOCCOCCOC[C@H]4OC[C@H](Nc5nccc(C(F)(F)F)n5)[C@@H](O)[C@H]4O)COCCC(=O)NCCOCCOCCOCCOC[C@H]4OC[C@H](Nc5nccc(C(F)(F)F)n5)[C@@H](O)[C@H]4O)nn3)C[C@H]1C(=O)N[C@@H](CC(=O)O)C(=O)N2 [Compound 12] |  |  |  | < 0.1 µM
C#CCCCC(=O)NCCOCCOCCOCCOCCN[C@@H](CC(=O)O)C(=O)N[C@H]1CSSC[C@@H](C(=O)N[C@H](C(N)=O)[C@@H](C)O)NC(=O)[C@H](Cc2c[nH]c3ccccc23)NC(=O)[C@H](C(C)C)NC(=O)[C@H](CC(C)C)NC(=O)[C@H](CCC(=O)O)NC(=O)CNC(=O)[C@H](CC(C)C)NC(=O)[C@H](Cc2cnc[nH]2)NC(=O)[C@H](Cc2c[nH]c3ccccc23)NC(=O)[C@H](C)NC1=O [Intermediate 3] | < 0.1 µM |  |  | 
